In ChEMBL document CHEMBL5050838 (2021):
Values belong to the compound of their own block, whether it stands above or below them. Active and inactive are the calls of the source. No cut-off for these calls is given here.

Experiments:
JIMT-1 [1] = assay: Inhibition of TACC3 expressed in human JIMT-1 cells at 1 uM and measured after 6 hrs by cellular thermal shift assay relative to control; assay type: cell-based
MDA-MB-436 = assay: Antiproliferative activity against human MDA-MB-436 cells after 72 hrs by Cell Titer Glo assay; assay type: functional, cell-based; details: MDA-MB-436, 72 h
MDA-MB-157 = assay: Antiproliferative activity against human MDA-MB-157 cells after 72 hrs by Cell Titer Glo assay; assay type: functional, cell-based; details: MDA-MB-157, 72 h
BT-474 = assay: Antiproliferative activity against T-DM1-resistant human BT-474 cells after 72 hrs by Cell Titer Glo assay; assay type: functional, cell-based; details: BT-474, 72 h
JIMT-1 [2] = assay: Anticlonogenic activity against human JIMT-1 cells assessed as reduction number of cell colonies at 100 to 1000 nM measured after 12 days by crystal violet reagent based colony formation assay; assay type: functional; details: dose 100-1000 nM, time 12.0 day
JIMT-1 [3] = assay: Induction of mitotic arrest in human JIMT-1 cells assessed as change in p-histone H3 levels and measured by Western blot analysis; assay type: functional, cell-based; details: dose 100-5000 nM
JIMT-1 [4] = assay: Induction of DNA damage in human JIMT-1 cells assessed as change in p-H2AX levels and measured by Western blot analysis; assay type: functional, cell-based; details: dose 100-5000 nM
JIMT-1 [5] = assay: Induction of apoptosis in human JIMT-1 cells assessed as change in cleaved caspase-3 levels and measured by Western blot analysis; assay type: functional, cell-based; details: dose 100-5000 nM
JIMT-1 [6] = assay: Induction of apoptosis in human JIMT-1 cells assessed as change in cleaved PARP levels and measured by Western blot analysis; assay type: functional, cell-based; details: dose 100-5000 nM
MCF-12A = assay: Antiproliferative activity against human MCF-12A cells after 72 hrs by Cell Titer Glo assay; assay type: functional, cell-based
JIMT-1 [7] = assay: Antitumor activity against human JIMT-1 cells xenografted female nude mouse assessed as reduction in tumor growth at 5 mg/kg, po administered for every two days for 30 days; assay type: functional, organism-based; details: time 30.0 day
[8] = Toxicity in human JIMT-1 cells xenografted female nude mouse assessed as effect on body weight at 5 mg/kg, po administered for every two days for 30 days; assay type: organism-based; details: in vivo, 720 h, time 30 day
JIMT-1 [9] = assay: Antitumor activity against human JIMT-1 cells xenografted female nude mouse assessed as reduction in tumor growth at 2 mg/kg, po administered for every two days for 30 days; assay type: functional, organism-based; details: time 30.0 day
JIMT-1 [10] = assay: Antitumor activity against human JIMT-1 cells xenografted female nude mouse assessed as reduction in tumor growth at 2 mg/kg, iv administered for every two days for 30 days; assay type: functional, organism-based; details: time 30.0 day
[11] = Toxicity in human JIMT-1 cells xenografted female nude mouse assessed as effect on body weight at 2 mg/kg, po administered for every two days for 30 days; assay type: organism-based; details: in vivo, 720 h, time 30 day
[12] = Toxicity in human JIMT-1 cells xenografted female nude mouse assessed as effect on body weight at 2 mg/kg, iv administered for every two days for 30 days; assay type: organism-based; details: in vivo, 720 h, time 30 day
JIMT-1 [13] = assay: Antitumor activity against human JIMT-1 cells xenografted female nude mouse assessed as reduction in tumor growth at 25 mg/kg, po administered for every two days for 23 days; assay type: functional, organism-based; details: time 23.0 day
JIMT-1 [14] = assay: Antitumor activity against human JIMT-1 cells xenografted female nude mouse assessed as reduction in tumor weight at 25 mg/kg, po administered for every two days for 23 days; assay type: functional, organism-based; details: time 23.0 day
[15] = Toxicity in human JIMT-1 cells xenografted female nude mouse assessed as effect on body weight at 25 mg/kg, po administered for every two days for 23 days; assay type: organism-based; details: in vivo, 552 h, time 23 day
[16] = Kinetic solubility in sodium phosphate buffer at pH 7.4 and at 25 degreeC after 2 hrs; assay type: physicochemical; details: read-out: Kinetic_solubility
[17] = Lipophilicity, log D of compound at pH 7.4 in octanol/phosphate buffer; assay type: physicochemical
[18] = Plasma protein binding in human; assay type: ADME, cell-free
[19] = Plasma protein binding in human assessed as unbound fraction; assay type: ADME, cell-free
[20] = Half-life in mouse liver microsomes; assay type: ADME, Microsome
[21] = Half-life in human liver microsomes; assay type: ADME, Microsome
[22] = Intrinsic clearance in mouse liver microsomes; assay type: ADME, Microsome; details: read-out: CLH
[23] = Intrinsic clearance in human liver microsomes; assay type: ADME, Microsome; details: read-out: CLH
[24] = Apparent permeability of the compound across apical to basolateral side in human Caco-2 cells; assay type: ADME, cell-based
[25] = Apparent permeability of the compound across basolateral to apical side in human Caco-2 cells; assay type: ADME, cell-based
JIMT-1 [26] = assay: Antiproliferative activity against human JIMT-1 cells after 72 hrs by Cell Titer Glo assay; assay type: functional, cell-based; details: JIMT-1, 72 h
JIMT-1 [27] = assay: Induction of mitotic arrest in human JIMT-1 cells at high concentration assessed as change in p-histone H3 levels and measured by Western blot analysis; assay type: functional, cell-based; details: dose 100-5000 nM
JIMT-1 [28] = assay: Induction of DNA damage in human JIMT-1 cells at high concentration assessed as change in p-H2AX levels and measured by Western blot analysis; assay type: functional, cell-based; details: dose 100-5000 nM
JIMT-1 [29] = assay: Induction of apoptosis in human JIMT-1 cells at high concentration assessed as change in cleaved caspase-3 levels and measured by Western blot analysis; assay type: functional, cell-based; details: dose 100-5000 nM
JIMT-1 [30] = assay: Induction of apoptosis in human JIMT-1 cells at high concentration assessed as change in cleaved PARP levels and measured by Western blot analysis; assay type: functional, cell-based; details: dose 100-5000 nM

IC50 (MDA-MB-436): 0.146 µM
IC50 (MDA-MB-157): 0.33 µM
IC50 (BT-474): 0.37 µM
solubility kinetic at 2 h [16]: < 1 µM
logD [17]: 2.31
PPB [18]: 98.87%
PPB [19]: 1.13%
half-life [20]: 5 min
half-life [21]: 12 min
microsomal CLint [22]: 329 µL/min/mg
microsomal CLint [23]: 118 µL/min/mg
Papp A→B [24]: 19.1 ×10⁻⁶ cm/s
Papp B→A [25]: 24.1 ×10⁻⁶ cm/s
SMILES: COc1ccc(-c2cc(Nc3ccnc(N4CCOCC4)n3)on2)cc1
Activity (JIMT-1 [1]): Active
Activity (JIMT-1 [2]): Dose-Dependent Effect
Activity (JIMT-1 [3]): Dose-Dependent Effect
Activity (JIMT-1 [4]): Dose-Dependent Effect
Activity (JIMT-1 [5]): Dose-Dependent Effect
Activity (JIMT-1 [6]): Dose-Dependent Effect
IC50 (MCF-12A): > 10 µM
Activity (JIMT-1 [7]): Active
Activity [8]: Non-Toxic
Activity (JIMT-1 [9]): Active
Activity (JIMT-1 [10]): Active
Activity [11]: Non-Toxic
Activity [12]: Non-Toxic
Activity (JIMT-1 [13]): Active
Activity (JIMT-1 [14]): Active
Activity [15]: Non-Toxic

IC50 (MDA-MB-436): 4.14 µM
IC50 (MDA-MB-157): 1.82 µM
IC50 (BT-474): 3.73 µM
SMILES: CC(C)CNc1ccnc(NCc2csc(-c3ccccc3)n2)n1
IC50 (JIMT-1 [26]): 1.8 µM
Activity (JIMT-1 [27]): Active
Activity (JIMT-1 [28]): Active
Activity (JIMT-1 [29]): Active
Activity (JIMT-1 [30]): Active
IC50 (MCF-12A): 3.46 µM

IC50 (MDA-MB-436): 1.3 µM
IC50 (MDA-MB-157): 1.82 µM
IC50 (BT-474): 0.99 µM
SMILES: CCN(Cc1ccncc1)Cc1c(O)ccc2c(-c3cc4ccccc4oc3=O)cc(=O)oc12
IC50 (JIMT-1 [26]): 1.15 µM
Activity (JIMT-1 [27]): Active
Activity (JIMT-1 [28]): Active
Activity (JIMT-1 [29]): Active
Activity (JIMT-1 [30]): Active
IC50 (MCF-12A): > 10 µM
